Measured values reported in ChEMBL document CHEMBL5649166, “RIP3 induces apoptosis independent of pronecrotic kinase activity” (Mol Cell, 2014).

Tests used:
[1] = molecular target: T1, Ephrin type-A receptor 3 (Homo sapiens) (UniProt P29320); assay: Inhibition of human EPHA3 using poly[Glu:Tyr] (4:1) as substrate at 1 uM in presence of 32P-ATP by Hotspot assay relative to control; values are per cent of control
T1 sequence (whole entry): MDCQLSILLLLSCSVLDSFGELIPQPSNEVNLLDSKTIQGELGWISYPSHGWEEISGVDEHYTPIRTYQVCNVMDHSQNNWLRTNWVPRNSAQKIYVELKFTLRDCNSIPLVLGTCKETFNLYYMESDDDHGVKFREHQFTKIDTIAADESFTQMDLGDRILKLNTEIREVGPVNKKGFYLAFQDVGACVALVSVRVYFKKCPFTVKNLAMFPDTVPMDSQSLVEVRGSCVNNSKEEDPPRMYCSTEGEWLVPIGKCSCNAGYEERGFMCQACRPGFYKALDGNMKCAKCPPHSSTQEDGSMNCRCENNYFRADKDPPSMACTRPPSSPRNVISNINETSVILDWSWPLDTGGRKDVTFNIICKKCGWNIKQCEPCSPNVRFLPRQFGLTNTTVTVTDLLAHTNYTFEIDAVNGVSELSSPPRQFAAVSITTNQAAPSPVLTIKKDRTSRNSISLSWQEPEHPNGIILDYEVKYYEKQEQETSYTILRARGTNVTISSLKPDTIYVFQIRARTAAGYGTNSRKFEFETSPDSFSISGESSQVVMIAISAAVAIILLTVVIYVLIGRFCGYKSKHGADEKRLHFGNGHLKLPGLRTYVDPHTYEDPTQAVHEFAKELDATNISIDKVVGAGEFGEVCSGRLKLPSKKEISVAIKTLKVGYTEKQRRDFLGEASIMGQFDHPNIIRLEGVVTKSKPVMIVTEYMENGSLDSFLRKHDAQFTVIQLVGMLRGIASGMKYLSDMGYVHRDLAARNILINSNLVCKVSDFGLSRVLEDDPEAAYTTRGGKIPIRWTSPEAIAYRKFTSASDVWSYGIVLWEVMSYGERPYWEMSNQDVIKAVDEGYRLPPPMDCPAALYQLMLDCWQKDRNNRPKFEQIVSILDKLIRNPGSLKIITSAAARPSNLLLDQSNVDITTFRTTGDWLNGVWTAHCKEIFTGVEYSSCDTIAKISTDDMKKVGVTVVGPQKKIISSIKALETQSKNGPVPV

[2] = molecular target: Tyrosine-protein kinase Lyn (Homo sapiens) (UniProt P07948); assay: Inhibition of human LYN using poly[Glu:Tyr] (4:1) as substrate at 1 uM in presence of 32P-ATP by Hotspot assay relative to control; values are per cent of control
Sequence of Tyrosine-protein kinase Lyn (Homo sapiens) (P07948 2-512 limits assumed): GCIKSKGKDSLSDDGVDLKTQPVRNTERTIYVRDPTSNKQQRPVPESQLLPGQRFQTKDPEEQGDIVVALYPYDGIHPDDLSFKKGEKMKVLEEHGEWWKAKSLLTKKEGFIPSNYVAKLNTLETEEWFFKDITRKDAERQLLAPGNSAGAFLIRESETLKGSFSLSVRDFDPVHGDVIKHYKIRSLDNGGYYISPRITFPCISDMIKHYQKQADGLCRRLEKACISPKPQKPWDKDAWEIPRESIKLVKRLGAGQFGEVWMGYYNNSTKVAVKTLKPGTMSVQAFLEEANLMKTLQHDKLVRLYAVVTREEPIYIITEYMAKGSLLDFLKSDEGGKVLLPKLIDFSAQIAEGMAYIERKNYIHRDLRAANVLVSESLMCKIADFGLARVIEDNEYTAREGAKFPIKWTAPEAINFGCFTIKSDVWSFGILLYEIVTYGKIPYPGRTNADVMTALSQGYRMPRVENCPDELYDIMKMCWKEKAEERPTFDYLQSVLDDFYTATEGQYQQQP

[3] = molecular target: T2, TGF-beta receptor type-1 (Homo sapiens) (UniProt P36897); assay: Inhibition of human ALK5/TGFBR1 using casein as substrate at 1 uM in presence of 32P-ATP by Hotspot assay relative to control; values are per cent of control
T2 sequence (whole entry): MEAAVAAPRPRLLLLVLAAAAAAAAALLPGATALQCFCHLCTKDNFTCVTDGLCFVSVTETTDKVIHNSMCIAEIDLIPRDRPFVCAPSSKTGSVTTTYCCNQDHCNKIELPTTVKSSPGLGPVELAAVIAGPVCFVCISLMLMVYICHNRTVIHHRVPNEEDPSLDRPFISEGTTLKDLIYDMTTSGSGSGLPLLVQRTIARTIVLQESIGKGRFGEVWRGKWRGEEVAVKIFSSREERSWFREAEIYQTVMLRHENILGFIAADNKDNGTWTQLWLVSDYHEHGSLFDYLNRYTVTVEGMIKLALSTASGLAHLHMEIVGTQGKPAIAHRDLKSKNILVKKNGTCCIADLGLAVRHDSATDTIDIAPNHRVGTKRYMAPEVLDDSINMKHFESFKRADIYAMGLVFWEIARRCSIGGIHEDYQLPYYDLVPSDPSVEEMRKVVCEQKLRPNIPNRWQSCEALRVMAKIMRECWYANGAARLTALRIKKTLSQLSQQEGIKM

[4] = molecular target: Tyrosine-protein kinase BTK (Homo sapiens) (UniProt Q06187); assay: Inhibition of human BTK using poly[Glu:Tyr] (4:1) as substrate at 1 uM in presence of 32P-ATP by Hotspot assay relative to control; values are per cent of control
Sequence of Tyrosine-protein kinase BTK (Homo sapiens) (Q06187 whole entry): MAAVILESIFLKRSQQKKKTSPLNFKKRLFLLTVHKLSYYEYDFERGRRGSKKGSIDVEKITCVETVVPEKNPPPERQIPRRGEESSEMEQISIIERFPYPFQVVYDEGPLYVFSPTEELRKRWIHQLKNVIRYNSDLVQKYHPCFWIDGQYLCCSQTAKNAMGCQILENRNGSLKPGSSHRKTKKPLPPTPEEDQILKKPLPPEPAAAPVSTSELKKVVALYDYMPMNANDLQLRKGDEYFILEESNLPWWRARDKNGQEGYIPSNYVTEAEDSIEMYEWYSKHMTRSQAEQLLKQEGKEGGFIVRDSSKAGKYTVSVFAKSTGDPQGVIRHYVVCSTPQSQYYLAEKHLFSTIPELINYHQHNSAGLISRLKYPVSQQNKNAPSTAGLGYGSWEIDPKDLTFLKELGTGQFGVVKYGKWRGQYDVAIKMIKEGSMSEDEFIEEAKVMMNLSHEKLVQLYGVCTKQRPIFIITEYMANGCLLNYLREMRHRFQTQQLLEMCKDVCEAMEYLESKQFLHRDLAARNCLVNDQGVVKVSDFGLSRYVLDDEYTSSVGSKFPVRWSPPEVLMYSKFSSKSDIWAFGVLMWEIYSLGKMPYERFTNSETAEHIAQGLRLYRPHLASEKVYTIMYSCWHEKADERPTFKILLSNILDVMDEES

[5] = molecular target: T3, MAP/microtubule affinity-regulating kinase 4 (Homo sapiens) (UniProt Q96L34); assay: Inhibition of human MARK4 using KKKVSRSGLYRSPSMPENLNRPR as substrate at 1 uM in presence of 32P-ATP by Hotspot assay relative to control; values are per cent of control
T3 sequence (whole entry): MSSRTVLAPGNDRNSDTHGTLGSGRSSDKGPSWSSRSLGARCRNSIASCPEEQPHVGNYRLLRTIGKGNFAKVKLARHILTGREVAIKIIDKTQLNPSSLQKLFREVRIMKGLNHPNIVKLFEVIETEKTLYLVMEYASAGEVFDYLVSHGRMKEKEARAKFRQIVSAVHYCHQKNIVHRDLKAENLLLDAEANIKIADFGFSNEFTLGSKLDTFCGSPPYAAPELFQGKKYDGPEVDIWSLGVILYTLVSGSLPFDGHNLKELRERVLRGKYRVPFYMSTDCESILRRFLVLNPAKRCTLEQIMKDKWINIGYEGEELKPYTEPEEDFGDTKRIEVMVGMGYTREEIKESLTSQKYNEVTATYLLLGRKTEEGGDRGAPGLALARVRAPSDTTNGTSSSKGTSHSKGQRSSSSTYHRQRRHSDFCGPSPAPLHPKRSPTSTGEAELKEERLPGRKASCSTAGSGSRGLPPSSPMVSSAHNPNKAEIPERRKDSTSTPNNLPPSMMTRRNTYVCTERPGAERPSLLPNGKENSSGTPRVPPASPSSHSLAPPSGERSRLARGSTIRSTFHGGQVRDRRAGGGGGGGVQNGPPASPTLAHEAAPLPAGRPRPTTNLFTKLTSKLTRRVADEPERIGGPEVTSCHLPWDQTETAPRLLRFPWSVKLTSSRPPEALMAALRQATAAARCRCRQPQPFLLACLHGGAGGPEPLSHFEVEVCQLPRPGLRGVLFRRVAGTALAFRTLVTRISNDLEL

[6] = molecular target: Calcium/calmodulin-dependent protein kinase type 1D (Homo sapiens) (UniProt Q8IU85); assay: Inhibition of human CAMK1d using KKALRRQETVDAL as substrate at 1 uM in presence of 32P-ATP by Hotspot assay relative to control; values are per cent of control
Sequence of Calcium/calmodulin-dependent protein kinase type 1D (Homo sapiens) (Q8IU85 whole entry, looked up): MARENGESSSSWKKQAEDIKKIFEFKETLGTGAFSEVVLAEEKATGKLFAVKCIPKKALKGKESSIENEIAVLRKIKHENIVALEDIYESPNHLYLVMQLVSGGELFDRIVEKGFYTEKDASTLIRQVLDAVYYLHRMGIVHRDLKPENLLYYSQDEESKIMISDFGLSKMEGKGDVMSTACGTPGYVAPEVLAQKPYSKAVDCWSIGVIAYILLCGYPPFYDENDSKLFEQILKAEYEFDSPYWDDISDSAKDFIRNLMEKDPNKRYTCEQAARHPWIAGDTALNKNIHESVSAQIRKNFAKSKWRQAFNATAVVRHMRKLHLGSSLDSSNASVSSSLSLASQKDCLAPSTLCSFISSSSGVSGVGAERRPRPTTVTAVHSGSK

| SMILES | residual activity [1] [%] | residual activity [2] [%] | residual activity [3] [%] | residual activity [4] [%] | residual activity [5] [%] | residual activity [6] [%] |
| --- | --- | --- | --- | --- | --- | --- |
| Cc1cc(-c2cnc(N)c3c(-c4ccc5scnc5c4)csc23)n(C)n1 | 80 | 17 | 97.8 | 58 | 86 | 97.8 |
| CNC(=O)c1ccc2c(c1)ncn2-c1ccc(CC(=O)OC(C)(C)C)cc1 | 82.7 | 73.5 | 94.9 | 79.8 | 93.1 | 99.1 |
| CC(C)S(=O)(=O)c1ccc2nccc(Nc3ccc4scnc4c3)c2c1 | 92 | 20 | 101 | 30.4 | 99.9 | 99 |
